Data: US11964962B2, “Substituted pyridazinone compound and use thereof” (SHANDONG FIRST MEDICAL UNIVERSITY & SHANDONG ACADEMY OF …, priority 2020, dated 2024)

Legend:
THRβ = molecular target: T1, THRβ (Homo sapiens, UniProt P10828); assay: THRβ agonist activity, fluorescence ratio 665 nm/615 nm with EE-RxRα and biotin-GRIP; format: biochemical; details: incubated overnight at 4° C.
T1 construct: GST
T1 sequence (P10828 1-461): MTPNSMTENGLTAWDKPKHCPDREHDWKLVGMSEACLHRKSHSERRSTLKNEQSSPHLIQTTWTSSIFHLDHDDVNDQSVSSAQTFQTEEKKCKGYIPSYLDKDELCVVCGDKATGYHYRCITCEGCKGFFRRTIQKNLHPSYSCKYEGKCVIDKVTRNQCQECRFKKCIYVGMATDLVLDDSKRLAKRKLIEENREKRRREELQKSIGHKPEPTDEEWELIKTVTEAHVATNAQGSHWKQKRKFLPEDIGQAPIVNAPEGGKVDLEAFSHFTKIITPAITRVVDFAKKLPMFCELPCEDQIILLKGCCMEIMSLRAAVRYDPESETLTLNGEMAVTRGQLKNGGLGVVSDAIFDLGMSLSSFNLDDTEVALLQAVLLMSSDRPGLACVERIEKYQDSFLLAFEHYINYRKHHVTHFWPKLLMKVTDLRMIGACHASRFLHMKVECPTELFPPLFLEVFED
T1 sequence (P19793 225-462 partner limits assumed): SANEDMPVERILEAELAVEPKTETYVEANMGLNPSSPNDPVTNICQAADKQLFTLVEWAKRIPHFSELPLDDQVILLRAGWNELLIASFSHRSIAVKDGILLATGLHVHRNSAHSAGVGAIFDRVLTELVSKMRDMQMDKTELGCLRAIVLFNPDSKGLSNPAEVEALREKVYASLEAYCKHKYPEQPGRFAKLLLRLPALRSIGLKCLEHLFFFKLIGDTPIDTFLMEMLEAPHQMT
T1 sequence (Q15596 679-703 partner limits assumed): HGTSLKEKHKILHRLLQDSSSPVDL
Method: (§1) Test compound was dissolved and serially diluted in dimethyl sulfoxide (DMSO) with a final compound concentration of 60 mM. […] Buffer 1 was employed again to prepare EE-RxRα at the same concentrations as those of THRα and THRβ, respectively. Buffer 1+5% DMSO was employed to prepare biotin-GRIP (THRα: […], THRβ: 100 nM). Buffer 2 (50 mM Tris, pH 7.4, 100 mM NaCl, and 0.2 mg/mL BSA) was employed to prepare a mixed solution of 2×Eu-anti-GST and 2×streptavidin-d2. 5 μL of the THRα (THRβ) solution+5 μL of EE-RxRα+2.5 μL of the DMSO solution of test compound+2.5 μL of biotin-GRIP+5 μL of the mixed solution of 2×Eu-anti-GST and 2×streptavidin-d2 was employed as the reaction system, and incubated overnight at 4° C.

L929 mouse fibroblasts = assay: Cytotoxicity in normal cell line L929 (CCK-8 proliferation assay); format: cell-based; details: 48 h treatment, CCK-8, absorbance 450 nm, read-out: IC50 for proliferation of L929 cell lines
Method: Concentration of L929 mouse fibroblasts was adjusted to 4×10^5 cells/mL. The cells were seeded in a 96 well plate with […] per well. Wells not supplied with the cells (blank group) were provided. The cells were cultivated on the plate and were allowed to adhere overnight. Then, cell culture supernatants were collected, and 200 μL of test compound at various concentrations were added to the corresponding cell culture supernatants. Control and compound-treated cell culture supernatants were included in each experiment with triplicate wells for each experimental group, and were cultivated for a further 48 h. Then, the resulting cell culture supernatants were again collected, and fresh medium supplemented with 10% CCK-8 solution was added thereto. Incubation for an additional 3 h was carried out. Thereafter, the absorbance of the medium was measured at 450 nm wavelength, and the inhibitory rate of cell proliferation by test compound was calculated according to the equation below: R (%)=1−(Aexperiment−Ablank)/(Acontrol−Ablank)

[1] = Metabolic stability in human liver microsomes; format: in vitro ADME; details: pH 7.4, 37° C.; for half-life: read-out: T ½
Method: Microsomal incubations were performed in 0.05 M Tris-KCl buffer (pH 7.4) in the presence of test compound dissolved in DMSO at a series of concentrations, rat liver microsomes (RLMs) (S9 or human liver microsomes (HLMs)), rat liver cytoplasms (RLCs) (human liver cytoplasms (HLCs, 0.5 mg/mL)), 1.3 mM β-nicotinamide adenine dinucleotide phosphate sodium salt (NADP), 3.3 mM D-glucose-6-phosphate disodium salt (G-6-P), 0.4 units/mL glucose-6-phosphate dehydrogenase (G-6-PDH, type XII), and 3.3 mM MgCl2. The volume of the organic solvents was not more than 1% by volume with respect to the reaction system. After a preincubation of the mixture in a rotating mixer at 37° C. and 850 rpm for 3 min, hepatic microsomes were added to initiate incubation reactions, which were conducted at 37° C. for 30 min, 60 min, or 90 min, respectively. After the incubations were complete, the reactions were terminated by addition of an equal volume of ice cold acetonitrile, followed by addition of 20 μL of a 1 mg/mL solution of geniposide (internal standard) in methanol and then by centrifugation at 10,000 rpm for 10 min to precipitate protein. The […] was blown dry with nitrogen at 40° C. and then dissolved in 100 μL of methanol, which was used as mobile phase. 10 μL of the solution was sampled and analyzed by HPLC.

THRα = molecular target: T2, THRα (Homo sapiens, UniProt P10827); assay: THRα agonist activity, fluorescence ratio 665 nm/615 nm with EE-RxRα and biotin-GRIP; format: biochemical; details: incubated overnight at 4° C.
T2 construct: GST
T2 sequence (P10827 1-410 isoform P10827-2): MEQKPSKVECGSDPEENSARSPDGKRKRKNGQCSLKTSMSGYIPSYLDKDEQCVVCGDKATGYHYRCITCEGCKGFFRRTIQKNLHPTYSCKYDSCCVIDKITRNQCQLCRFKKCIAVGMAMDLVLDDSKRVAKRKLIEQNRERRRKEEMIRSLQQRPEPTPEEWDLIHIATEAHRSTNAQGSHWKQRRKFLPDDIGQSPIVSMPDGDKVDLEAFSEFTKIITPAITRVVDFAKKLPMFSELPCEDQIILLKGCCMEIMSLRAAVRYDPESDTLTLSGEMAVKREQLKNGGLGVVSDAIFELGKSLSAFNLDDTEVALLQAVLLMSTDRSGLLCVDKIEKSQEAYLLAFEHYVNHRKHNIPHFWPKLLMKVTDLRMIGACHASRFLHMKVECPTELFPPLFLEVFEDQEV
T2 sequence (P19793 225-462 partner limits assumed): T1 sequence (P19793 225-462 partner limits assumed)
T2 sequence (Q15596 679-703 partner limits assumed): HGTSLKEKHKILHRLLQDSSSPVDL
Method: as §1

| Structure (SMILES) | EC50 (THRβ) [nM] | IC50 (L929 mouse fibroblasts) [nM] | microsomal CLint [1] [µL/min/mg] | half-life [1] [h] | EC50 (THRα) [nM] |
| --- | --- | --- | --- | --- | --- |
| N#Cc1nn(-c2ccc(Oc3cc(CC4CCCC4)c(=O)[nH]n3)c(F)c2)c(=O)[nH]c1=O [Compound 7] | 13 | > 50000 | 0.12 | 18.3 | 10000 |
| CC(C)c1cc(Oc2c(Cl)cc(-n3nc(C#N)c(=O)[nH]c3=O)cc2Cl)n[nH]c1=O [MGL-3196, Resmetirom, reference compound] |  |  | 2.21 | < 6.67 |  |
| N#Cc1nn(-c2cc(Cl)c(Oc3cc(CC4CCCC4)c(=O)[nH]n3)c(Cl)c2)c(=O)[nH]c1=O [Compound 6] | 94.9 | > 50000 | 0.18 | 16.3 | 2750 |
| Cc1c(Oc2ccc(-n3nc(C#N)c(=O)[nH]c3=O)cc2Cl)n[nH]c(=O)c1C [Compound 24] | 10.1 | > 50000 | 0.452 | 14.5 | 3290 |
| CC(C)c1cc(=O)[nH]nc1Oc1ccc(-n2nc(C#N)c(=O)[nH]c2=O)c(Cl)c1 [Compound 36] | 4160 | > 50000 |  |  | 13800 |
| CC(C)(C)c1cc(Oc2c(Cl)cc(-c3nn[nH]n3)cc2Cl)n[nH]c1=O [Compound 50] | 465 | > 50000 |  |  | 2590 |
| CC(C)c1cc(Oc2c(Br)cc(-n3nc(C#N)c(=O)[nH]c3=O)cc2Br)n[nH]c1=O [Compound 28] | 102 | > 50000 |  |  | 38.1 |
| N#Cc1nn(-c2cc(Cl)c(Oc3n[nH]c(=O)cc3C3CCCC3)c(Cl)c2)c(=O)[nH]c1=O [Compound 38] | 783 | > 50000 |  |  | 4660 |
| CC(C)(C)c1cc(Oc2ccc(-n3nc(C#N)c(=O)[nH]c3=O)cc2F)n[nH]c1=O [Compound 2, 2-(4-((5-(tert-butyl)-6-oxo-1,6-dihydropyridazin-3-yl)oxy)-3-fluorophenyl)-3,5-dioxo-2,3,4,5-tetrahydro-1,2,4-triazine-6-carbonitrile] | 21 | > 50000 |  |  | 5380 |
| N#Cc1nn(-c2cc(Cl)c(Oc3cc(CC4CCCC4)c(=O)[nH]n3)cc2Cl)c(=O)[nH]c1=O [Compound 11] | 372 | > 50000 |  |  | 2140 |
| N#Cc1nn(-c2ccc(Oc3cc(CC4CCCC4)c(=O)[nH]n3)c(Br)c2)c(=O)[nH]c1=O [Compound 9] | 642 | > 50000 |  |  | 4760 |
| CC(C)(C)Cc1cc(Oc2ccc(-n3nc(C#N)c(=O)[nH]c3=O)cc2Cl)n[nH]c1=O [Compound 19] | 66.8 | > 50000 |  |  | 11800 |
| N#Cc1nn(-c2ccc(Oc3cc(CC4CCCC4)c(=O)[nH]n3)cc2)c(=O)[nH]c1=O [Compound 13] | 1900 | > 50000 |  |  | > 60000 |
